The target in the first assay is T1, MAGE-A11:PCF11 interaction (GST-MAGE-A11 and FAM-PCF11_4) (Homo sapiens, UniProt P43364).
T1 construct: GST-MAGE-A11 MHD (human MAGE-A11 MHD amino acid 218-429); made in house; host or cells: E. coli BL21(DE3)
T1 sequence (P43364 218-429): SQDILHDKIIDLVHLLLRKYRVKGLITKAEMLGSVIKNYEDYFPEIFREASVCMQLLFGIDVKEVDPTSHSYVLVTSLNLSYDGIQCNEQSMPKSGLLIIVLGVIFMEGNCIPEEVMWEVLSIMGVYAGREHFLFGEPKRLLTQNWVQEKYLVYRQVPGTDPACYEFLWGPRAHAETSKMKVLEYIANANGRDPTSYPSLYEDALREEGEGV
Put plainly: TR-FRET primary / single point screen at 15 µM. The class given is binding. As to conditions: single point TR-FRET screening of 797 quinoline compounds against MAGE-A11:PCF11. The method, boiled down: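 TR-FRET 520/490 nm emission ratio was read after 90 min at room temperature. Wells held 5 nM GST-MAGE-A11, 5 nM Tb-anti-GST, 200 nM FAM-PCF11_4 and 15 µM compound in Tris pH 7.5 buffer with MgCl2, BSA and DTT. %Inhibition was scaled to DMSO and minus-MAGE-A11 controls.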
For orientation: In TR-FRET formats the signal depends on donor and acceptor labels being close together.
In the case of `CC(C)CN(CCCCNc1ccnc2cc(Cl)ccc12)Cc1ccccc1` [SJ000357470], the “percent inhibition (TR-FRET)” value is 25.4682.

`Clc1ccc2c(NC3CCN(CC4CC4)CC3)ccnc2c1` [SJ000357481]: the “percent inhibition (TR-FRET)” value stood at 3.973.

With `Clc1ccc2c(NCCCCN(Cc3ccccc3)CC3CC3)ccnc2c1` [SJ000357485], the “percent inhibition (TR-FRET)” value worked out at 18.3422.

Regarding `COc1ccc(F)cc1CN1CCC(Nc2ccnc3cc(Cl)ccc23)CC1` [SJ000357493], the “percent inhibition (TR-FRET)” value was 6.1527.

For `COc1ccc(F)cc1CN(CCCCNc1ccnc2cc(Cl)ccc12)Cc1ccccc1` [SJ000357496], the “percent inhibition (TR-FRET)” value was 20.7772.

`COc1cccc(F)c1CN1CCC(Nc2ccnc3cc(Cl)ccc23)CC1` [SJ000357498]: the “percent inhibition (TR-FRET)” value was 10.503.

In the case of `COc1cccc(F)c1CN(CCCCNc1ccnc2cc(Cl)ccc12)Cc1ccccc1` [SJ000357501], the “percent inhibition (TR-FRET)” value is recorded as 5.094.

As to `Oc1c(F)cc(F)cc1CN(CCCCNc1ccnc2cc(Cl)ccc12)Cc1ccccc1` [SJ000357506], the “percent inhibition (TR-FRET)” value stood at 30.6494.

As to `Clc1ccc2c(NC3CCN(Cc4ccc(Br)o4)CC3)ccnc2c1` [SJ000357512], the “percent inhibition (TR-FRET)” value was -4.381.

For `Clc1ccc2c(NC3CCN(Cc4ccccc4)CC3)ccnc2c1` [SJ000357524], the “percent inhibition (TR-FRET)” value amounted to 6.554.

`COc1cccc(CN2CCC(Nc3ccnc4cc(Cl)ccc34)CC2)c1O` [SJ000357525]: the “percent inhibition (TR-FRET)” value worked out at 9.995.

As for `COc1ccc(O)c(CN2CCC(Nc3ccnc4cc(Cl)ccc34)CC2)c1` [SJ000357527], the “percent inhibition (TR-FRET)” value is 7.779.

With `Oc1ccccc1CN1CCC(Nc2ccnc3cc(Cl)ccc23)CC1` [SJ000357529], the “percent inhibition (TR-FRET)” value was 22.1466.

`CC(C)(C)CCN(CCCCNc1ccnc2cc(Cl)ccc12)Cc1ccccc1` [SJ000357537]: the “percent inhibition (TR-FRET)” value was found to be 34.5391.

In the case of `CCCCN(CCCCNc1ccnc2cc(Cl)ccc12)Cc1ccccc1` [SJ000357538], the “percent inhibition (TR-FRET)” value turned out to be 27.6387.

Take `Clc1ccc2c(NCCCCN(CCOCc3ccccc3)Cc3ccccc3)ccnc2c1` [SJ000357543]: the “percent inhibition (TR-FRET)” value is reported as -15.9162.

On to `COc1ccc2nc3cc(Cl)ccc3c(NCCCNCc3ccc4c(c3)OCO4)c2c1` [SJ000361085], for which the “percent inhibition (TR-FRET)” value is on record as -363.307.

Regarding `COc1ccc2nc3cc(Cl)ccc3c(NCCCNCc3ccccc3)c2c1` [SJ000361086], the “percent inhibition (TR-FRET)” value is given as -432.435.

Turning to `COc1ccc2nc3cc(Cl)ccc3c(NCCCNCC3CC3)c2c1` [SJ000361087], the “percent inhibition (TR-FRET)” value is listed as -502.358.

In the case of `COc1ccc2nc3cc(Cl)ccc3c(NCCCNCc3cccs3)c2c1` [SJ000361088], the “percent inhibition (TR-FRET)” value is on record as -453.536.

Take `COc1ccc2nc3cc(Cl)ccc3c(NCCCNCc3ccc(C)o3)c2c1` [SJ000361089]: the “percent inhibition (TR-FRET)” value is reported as -229.025.

Take `COc1ccc2nc3cc(Cl)ccc3c(NCCCNCC3CCCCC3)c2c1` [SJ000361090]: the “percent inhibition (TR-FRET)” value is listed as -411.15.

On to `COc1ccc2nc3cc(Cl)ccc3c(NCCCNCc3cc(F)ccc3F)c2c1` [SJ000361091], for which the “percent inhibition (TR-FRET)” value is listed as -327.201.

As for `CCC(CC)CNCCCNc1c2ccc(Cl)cc2nc2ccc(OC)cc12` [SJ000361092], the “percent inhibition (TR-FRET)” value was -427.368.

`CCC(C)CNCCCNc1c2ccc(Cl)cc2nc2ccc(OC)cc12` (stereo not drawn) [SJ000361093]: the “percent inhibition (TR-FRET)” value was -451.494.

With `COc1ccc2nc3cc(Cl)ccc3c(NCCCNCc3sccc3C)c2c1` [SJ000361094], the “percent inhibition (TR-FRET)” value is -321.32.

As for `COc1ccc2nc3cc(Cl)ccc3c(NCCCNCc3ccccc3C(F)(F)F)c2c1` [SJ000361095], the “percent inhibition (TR-FRET)” value was -169.468.

Take `CCCNCCCNc1c2ccc(Cl)cc2nc2ccc(OC)cc12` [SJ000361096]: the “percent inhibition (TR-FRET)” value is recorded as -498.476.

With `CCCCCCNCCCNc1c2ccc(Cl)cc2nc2ccc(OC)cc12` [SJ000361097], the “percent inhibition (TR-FRET)” value is -281.691.

On to `COc1ccc2nc3cc(Cl)ccc3c(NCCCNCCC(C)SC)c2c1` (stereo not drawn) [SJ000361098], for which the “percent inhibition (TR-FRET)” value is -514.546.

Staying with this assay, now noted: single point TR-FRET screening of quinoline compounds against MAGE-A11:PCF11; 15 µM.
With `CC(C)CN(CCCNc1ccnc2cc(Cl)ccc12)Cc1ccccc1` [SJ000357468], the “percent inhibition (TR-FRET)” value was found to be 18.7467.

`Clc1ccc2c(NCCCN(Cc3ccccc3)CC3CC3)ccnc2c1` [SJ000357483]: the “percent inhibition (TR-FRET)” value came to 21.0583.

`CCCN(CCCNc1ccnc2cc(Cl)ccc12)Cc1cc(F)ccc1OC` [SJ000357494]: the “percent inhibition (TR-FRET)” value is 17.0835.

Take `COc1ccc(F)cc1CN(CCCNc1ccnc2cc(Cl)ccc12)Cc1ccccc1` [SJ000357495]: the “percent inhibition (TR-FRET)” value is listed as 6.683.

For the molecule `CCCN(CCCNc1ccnc2cc(Cl)ccc12)Cc1c(F)cccc1OC` [SJ000357499], the “percent inhibition (TR-FRET)” value came to 19.4021.

Regarding `COc1cccc(F)c1CN(CCCNc1ccnc2cc(Cl)ccc12)Cc1ccccc1` [SJ000357500], the “percent inhibition (TR-FRET)” value is given as -2.857.

Take `Oc1c(F)cc(F)cc1CN(CCCNc1ccnc2cc(Cl)ccc12)Cc1ccccc1` [SJ000357504]: the “percent inhibition (TR-FRET)” value is listed as 27.6387.

For `CCCN(CCCNc1ccnc2cc(Cl)ccc12)CC(C)C` [SJ000357568], the “percent inhibition (TR-FRET)” value worked out at 11.4525.

For the molecule `CCCN(CCCNc1ccnc2cc(Cl)ccc12)CCC(C)(C)C` [SJ000357570], the “percent inhibition (TR-FRET)” value is listed as 12.1149.

`CCCCN(CCC)CCCNc1ccnc2cc(Cl)ccc12` [SJ000357571]: the “percent inhibition (TR-FRET)” value was 12.7774.

On to `CCCN(CCCNc1ccnc2cc(Cl)ccc12)CCC(C)c1ccccc1` (stereo not drawn) [SJ000357573], for which the “percent inhibition (TR-FRET)” value is reported as 24.9781.

For the molecule `CCCN(CCCNc1ccnc2cc(Cl)ccc12)CCc1ccccc1` [SJ000357574], the “percent inhibition (TR-FRET)” value came out at 4.8836.

Take `CCCN(CCCNc1ccnc2cc(Cl)ccc12)CCCSC` [SJ000357576]: the “percent inhibition (TR-FRET)” value came out at 7.824.

With `CCCN(CCCNc1ccnc2cc(Cl)ccc12)CCOCc1ccccc1` [SJ000357577], the “percent inhibition (TR-FRET)” value was -13.1805.

On to `CC(C)(C)CCN(CCCNc1ccnc2cc(Cl)ccc12)Cc1ccccc1` [SJ000357578], for which the “percent inhibition (TR-FRET)” value was 25.6873.

For `CCCCN(CCCNc1ccnc2cc(Cl)ccc12)Cc1ccccc1` [SJ000357579], the “percent inhibition (TR-FRET)” value turned out to be 19.3068.

Turning to `Clc1ccc2c(NCCCN(CCc3ccccc3)Cc3ccccc3)ccnc2c1` [SJ000357580], the “percent inhibition (TR-FRET)” value stood at 14.4057.

`Clc1ccc2c(NCCCN(CCOCc3ccccc3)Cc3ccccc3)ccnc2c1` [SJ000357583]: the “percent inhibition (TR-FRET)” value is listed as 13.2411.

As to `CCCN(CCCNc1ccnc2cc(Cl)ccc12)Cc1cccc2c1OCO2` [SJ000357594], the “percent inhibition (TR-FRET)” value is given as 18.1434.

For the molecule `CCCN(CCCNc1ccnc2cc(Cl)ccc12)Cc1ccccc1OC(F)(F)F` [SJ000357595], the “percent inhibition (TR-FRET)” value is listed as -21.8698.

On to `CCCN(CCCNc1ccnc2cc(Cl)ccc12)Cc1cc(F)cc(F)c1O` [SJ000357597], for which the “percent inhibition (TR-FRET)” value was found to be 15.9573.

In the case of `Clc1ccc2c(NCCCN(Cc3ccccc3)Cc3cccc4c3OCO4)ccnc2c1` [SJ000357598], the “percent inhibition (TR-FRET)” value was determined as 3.49.

Consider `FC(F)(F)Oc1ccccc1CN(CCCNc1ccnc2cc(Cl)ccc12)Cc1ccccc1` [SJ000357599], for which the “percent inhibition (TR-FRET)” value was found to be 19.7634.

`COc1ccc2nc3cc(Cl)ccc3c(NCCCNCc3ccc[nH]3)c2c1` [SJ000361084]: the “percent inhibition (TR-FRET)” value turned out to be 0.9854.

Take `COc1ccc2nc3cc(Cl)ccc3c(NCCCNCc3c4ccccc4cc4ccccc34)c2c1` [SJ000361099]: the “percent inhibition (TR-FRET)” value is given as -3.728.

Regarding `Clc1ccc2c(NCCCNCC3CC3)ccnc2c1` [SJ000361101], the “percent inhibition (TR-FRET)” value stood at 11.4651.

Take `Clc1ccc2c(NCCCNCC3CCCCC3)ccnc2c1` [SJ000361102]: the “percent inhibition (TR-FRET)” value stood at 15.626.

In the case of `CCC(CC)CNCCCNc1ccnc2cc(Cl)ccc12` [SJ000361103], the “percent inhibition (TR-FRET)” value is listed as 16.5535.

With `CCC(C)CNCCCNc1ccnc2cc(Cl)ccc12` (stereo not drawn) [SJ000361104], the “percent inhibition (TR-FRET)” value worked out at 9.822.

For `FC(F)(F)c1ccc2c(NCCCNCc3ccc[nH]3)ccnc2c1` [SJ000361105], the “percent inhibition (TR-FRET)” value was 41.6887.

Consider `FC(F)(F)c1ccc2c(NCCCNCC3CC3)ccnc2c1` [SJ000361108], for which the “percent inhibition (TR-FRET)” value was determined as 22.8076.

As to `Cc1ccc(CNCCCNc2ccnc3cc(C(F)(F)F)ccc23)o1` [SJ000361109], the “percent inhibition (TR-FRET)” value came to 14.4523.

Turning to `FC(F)(F)c1ccc2c(NCCCNCC3CCCCC3)ccnc2c1` [SJ000361110], the “percent inhibition (TR-FRET)” value came to 27.1172.

For the molecule `CCC(CC)CNCCCNc1ccnc2cc(C(F)(F)F)ccc12` [SJ000361111], the “percent inhibition (TR-FRET)” value is 24.3255.

Take `CCC(C)CNCCCNc1ccnc2cc(C(F)(F)F)ccc12` (stereo not drawn) [SJ000361112]: the “percent inhibition (TR-FRET)” value stood at 18.4697.

On to `FC(F)(F)c1ccc2c(NCCCNCc3ccco3)ccnc2c1` [SJ000361113], for which the “percent inhibition (TR-FRET)” value is listed as 18.0466.

For `CCCNCCCNc1ccnc2cc(Cl)ccc12` [SJ000361119], the “percent inhibition (TR-FRET)” value turned out to be 9.7847.

As to `CCCCCCNCCCNc1ccnc2cc(Cl)ccc12` [SJ000361120], the “percent inhibition (TR-FRET)” value is 22.2507.

For `CSC(C)CCNCCCNc1ccnc2cc(Cl)ccc12` (stereo not drawn) [SJ000361121], the “percent inhibition (TR-FRET)” value stood at 13.499.
